Patent US20030198617A1, “Pharmaceutical tryptophan containing dipeptide compositions and methods of use thereof” (priority 1993, published 2003)
Like-named read-outs stand apart in the source and are kept apart here. Marks after values point to notes of the source that are not given here.

Key:
[1] = Acute radiation sickness, 6 months after accident, blood parameters; assay type: in vivo, human; details: after therapy with IM862
Procedure: The patients described above in Example 47 were tested for blood parameters after 6 months of treatment immediately following exposure to the radiation caused by the Chernobyl accident.

Candida albicans = Candida albicans intraperitoneal infection in guinea pigs; assay type: in vivo
Description: Two groups of guinea pigs were inoculated with Candida albicans by intraperitoneal injection. […] The other group was not treated.
Animals were sacrificed at day 5 and day 10. The peritoneal cavities were examined for signs of inflammation. These signs included number of infectious foci adherent to the omentum, exudate, fibrin deposition, quantitative fungal cultures, and the number of neutrophils, macrophages, and lymphocytes infiltrating the peritoneum.

[2] = Resistance to excessive solar radiation in hot marine climates; assay type: in vivo, human; details: IM862 intranasally 100 μg 3 days, 27 persons
Procedure: The control group comprised 24 persons. The administration was intranasally 100 μg for 3 days. […] There was also noted suppression of their immunologic indices.

ARD and influenza = assay type: in vivo, human
skin grafts = test: Skin allograft survival in mice; assay type: in vivo
corneal epithelium = test: Corneal epithelium restoration (experimental data); assay type: in vivo; details: IM862 IM, intranasally or ocular installation
[3] = Infected patients (Example 96); assay type: in vivo, human; details: IM862 100 μg 5-10 days, 36 patients
Description: A total of 36 patients infected and 24 patients infected were controls.

[4] = Immunity and non-specific resistance indices in breast cancer patients after radiotherapy; assay type: in vivo, human; details: after IM862 use
[5] = Radiation immunodeficiency correction two months after irradiation (Chernobyl), blood parameters; assay type: in vivo, human; details: after IM862 therapy
Procedure: These patients were treated for 2 months immediately succeeding exposure to radiation caused from the Chernobyl nuclear accident. As a control, about 19 people exposed to radiation were tested for various blood parameters to establish a baseline.

hemorrhagic Dengue Fever = test: Hemorrhagic Dengue Fever study, duration of symptoms; assay type: in vivo, human; details: IM862 administered
Procedure: All those examined were representatives of organized collectives and had the same type of working and living conditions prior to the onset of illness. The patients were referred to in-patient treatment to the 175th Military Hospital in Ho Chi Minh City during an epidemic of Dengue fever in southern Socialist Republic of Vietnam.
Diagnoses of HDF were established by criteria recommended by the WHO (1986). Serological analyses were performed at the Arbovirus Infections Laboratory of the Pasteur Institute (Ho Chi Minh City). Disease severity was 1-2 in all patients.
The patients were divided into one group treated with IM862 and one group not receiving IM862. […] The efficacy of therapy was determined by observation of the duration of the most frequently encountered signs and symptoms of the disease (Table 14).

[6] = Patients with fever, toxic symptoms, jaundice (Example 101); assay type: in vivo, human; details: IM862 IM or intranasally 5-10 days, 39 patients
Description: A total of 39 patients were studied with 27 patient controls. […] Immunological indices were normalized.

Substance: Glu-Trp [IM862]
- B-Ig+, % [1]: 19.0 ± 1.3 %
- B-Ig+, abs [1]: 0.29 ± 0.03 10^9/liter
- B-IgA+, % [1]: 1.8 ± 0.3%
- B-IgA+, abs [1]: 0.030 ± 0.002 10^9/liter
- B-IgG+, % [1]: 6.4 ± 0.5 %
- B-IgG+, abs [1]: 0.100 ± 0.007 10^9/liter
- B-IgM+, % [1]: 8.8 ± 0.7%
- B-IgM+, abs [1]: 0.13 ± 0.02 10^9/liter
- CD2, % [1]: 49 ± 3 %
- CD3, % [1]: 53.4 ± 1.8 %
- CD3, abs [1]: 0.82 ± 0.04** 10^9/liter
- CD4, % [1]: 32.6 ± 1.4 %
- CD4, abs [1]: 0.50 ± 0.04* 10^9/liter
- CD19, % [1]: 26.7 ± 2.1%
- CD19, abs [1]: 0.041 ± 0.03** 10^9/liter
- CDS, % [1]: 21.2 ± 1.8%
- CDS, abs [1]: 0.32 ± 0.03 10^9/liter
- IgA [1]: 1.8 ± 0.9 g/L
- IgG [1]: 10.9 ± 1.1 g/L
- IgM [1]: 1.07 ± 0.09 g/L
- LMI [1]: 72.7 ± 4.5
- Lymphocytes % [1]: 30.0 ± 1.8%
- Lymphocytes, abs [1]: 1.52 ± 0.12* 10^9/liter
- T4/T8 [1]: 1.54 ± 0.11
- inflammatory changes in the omentum (Candida albicans; after 5 days): did not principally differ between the groups
- quantitative fungal cultures (Candida albicans; after 10 days): fewer fungi in the treated animals
- inflammatory changes in the omentum (Candida albicans; after 10 days, 1 μg/kg per day i.p. for four days): less pronounced than in untreated animals
- clinical effect [2]: prevented the occurrence of upper respiratory infections
- Average term of hospitalization (ARD and influenza; 1st month): 6.2 days
- Need in hospitalization, % (ARD and influenza; 1st month): 27.0%
- Number of temporary disablement cases/100 persons/month (ARD and influenza; 1st month): 3.8 cases/100 persons/month
- Number of temporary disablement days/100 persons/month (ARD and influenza; 1st month): 24.0 days/100 persons/month
- Sickness rate/100 persons/month (ARD and influenza; 1st month): 9.6 /100 persons/month
- Average term of hospitalization (ARD and influenza; 2nd month): 6.2 days
- Need in hospitalization, % (ARD and influenza; 2nd month): 27.1%
- Number of temporary disablement cases/100 persons/month (ARD and influenza; 2nd month): 7.3 cases/100 persons/month
- Number of temporary disablement days/100 persons/month (ARD and influenza; 2nd month): 48.6 days/100 persons/month
- Sickness rate/100 persons/month (ARD and influenza; 2nd month): 11.3 /100 persons/month
- Average term of hospitalization (ARD and influenza; 3rd month): 6.2 days
- Need in hospitalization, % (ARD and influenza; 3rd month): 28.3%
- Number of temporary disablement cases/100 persons/month (ARD and influenza; 3rd month): 3.4 cases/100 persons/month
- Number of temporary disablement days/100 persons/month (ARD and influenza; 3rd month): 14.3 days/100 persons/month
- Sickness rate/100 persons/month (ARD and influenza; 3rd month): 9.4 /100 persons/month
- Average term of hospitalization (ARD and influenza; 4th month): 7.0 days
- Need in hospitalization, % (ARD and influenza; 4th month): 28.3%
- Number of temporary disablement cases/100 persons/month (ARD and influenza; 4th month): 3.6 cases/100 persons/month
- Number of temporary disablement days/100 persons/month (ARD and influenza; 4th month): 26.3 days/100 persons/month
- Sickness rate/100 persons/month (ARD and influenza; 4th month): 11.0 /100 persons/month
- Average term of hospitalization (ARD and influenza; IM862 group): 6.2 days
- Need in hospitalization (ARD and influenza; IM862 group): 30.6
- Number of temporary disablement cases/100 persons/month (ARD and influenza; IM862 group): 4.1 cases/100 persons/month
- Number of temporary disablement days/100 persons/month (ARD and influenza; IM862 group): 26.5 days/100 persons/month
- Pneumonia rate/100 persons/month (ARD and influenza; IM862 group): 0.20 /100 persons/month
- Rate of lingering and complicated cases, % (ARD and influenza; IM862 group): 3.9%
- Sickness rate per 100 persons/month (ARD and influenza; IM862 group): 9.8 per 100 persons/month
- The same index in-patients, % (ARD and influenza; IM862 group, lingering and complicated cases): 9.8%
- Index of efficiency: Average term of hospitalization (ARD and influenza; IM862 vs control): 1.4
- Index of efficiency: Need in hospitalization (ARD and influenza; IM862 vs control): 1.7
- Index of efficiency: Pneumonia rate (ARD and influenza; IM862 vs control): 2.5
- Index of efficiency: Rate of lingering and complicated cases (ARD and influenza; IM862 vs control): 3.5
- Index of efficiency: Sickness rate (ARD and influenza; IM862 vs control): 3.1
- Index of efficiency: The same index in-patients (ARD and influenza; IM862 vs control): 2.7
- Index of efficiency: temporary disablement cases (ARD and influenza; IM862 vs control): 1.7
- Index of efficiency: temporary disablement days (ARD and influenza; IM862 vs control): 2.2
- GRAFT REJECTION TIME (skin grafts; mice, daily for 5 treatments prior to grafting, IM862 0.01 mg/kg, Thymalin 1.0 mg/kg): 8.3 ± 0.4 days
- graft survival (skin grafts; vs animals not receiving Glu-Trp): prolonged survival
- corneal epithelium (corneal epithelium): restoration and regeneration of corneal epithelium
- clinical effect [3]: reduction of fever
- B-lymphocyte (Ig^+) (×10^9/l) [4]: 0.17 ± 0.02 ×10^9/l
- C3-complement [4]: 0.68 ± 0.04 g/L
- Cation [4]: 1.49 ± 0.12
- LMI with ConA, % [4]: 71 ± 5 %
- Lymphocytes ×10^9/l [4]: 1.72 ± 0.21 ×10^9/l
- OKT4^+/OKT8^+ [4]: 1.86 ± 0.17
- Phagocytic index [4]: 3.7 ± 0.2
- T-helpers (OKT4^+) [4]: 0.39 ± 0.04
- T-lymphocytes (×10^9/l) [4]: 0.92 ± 0.12 ×10^9/l
- T-suppressors (OKT8^+) (×10^9/l) [4]: 0.21 ± 0.03 ×10^9/l
- “Active” T-lymphocytes (×10^9/l) [4]: 0.52 ± 0.07 ×10^9/l
- DSH to tuberculin (mm) ([4]; delayed-skin hypersensitivity): 8.7 ± 0.6 mm
- SI to IM862 ([4]; sensitivity index): 1.27 ± 0.14
- CD2, % [5]: 48.7 ± 1.8 %
- CD2, abs [5]: 1.13 ± 0.08** 10^9/l
- CD2-DR+, % [5]: 30.0 ± 1.2 %
- CD2-DR+, abs [5]: 0.55 ± 0.06* 10^9/l
- CD19, % [5]: 27 ± 4%
- CD19, abs [5]: 0.51 ± 0.10** 10^9/l
- E-RFC, % [5]: 27.4 ± 2.4 %
- IgA [5]: 1.49 ± 0.19 g/L
- IgG [5]: 10.0 ± 1.0 g/L
- IgM [5]: 1.00 ± 0.10 g/L
- LMI with ConA, % [5]: 90 ± 10 %
- Leukocytes, abs [5]: 5.0 ± 1.2** 10^9/l
- Lymphocytes, 2abs [5]: 1.9 ± 0.4* 10^9/l
- Duration of Abdominal pain (hemorrhagic Dengue Fever): 7.7 ± 1.1 days
- Duration of Anorexia (hemorrhagic Dengue Fever): 7.5 ± 0.8 days
- Duration of Headaches (hemorrhagic Dengue Fever): 8.1 ± 0.9 days
- Duration of Hepatomegaly (hemorrhagic Dengue Fever): 11.3 ± 0.8 days
- Duration of Insomnia (hemorrhagic Dengue Fever): 7.1 ± 0.7 days
- Duration of Joint pain (hemorrhagic Dengue Fever): 7.4 ± 0.7 days
- Duration of Low back pain (hemorrhagic Dengue Fever): 8.1 ± 0.8 days
- Duration of Lumbar pain (hemorrhagic Dengue Fever): 8.7 ± 0.7 days
- Duration of Ophthalmalgia (hemorrhagic Dengue Fever): 6.6 ± 0.8 days
- Duration of Splenomegaly (hemorrhagic Dengue Fever): 9.6 ± 0.7 days
- Duration of Weakness/fatigue (hemorrhagic Dengue Fever): 9.3 ± 0.8 days
- Duration of Fever, Prescription 2-4 days (hemorrhagic Dengue Fever; total dose 500 μg): 4.7 ± 0.2 days
- Duration of Fever, Prescription 2-6 days (hemorrhagic Dengue Fever; total dose 500 μg): 5.2 ± 0.3 days
- clinical effect [6]: reduction of fever
